Measurements taken from patent US20080038220A1 (LABORATOIRES BESINS INTERNATIONAL, priority 2004, published 2008).
Converted amounts (≈) assume the structure as drawn. Read-outs that look alike come from different tables or passages of the source.

Columns and labels:
[1] = Testosterone solubility by the increment method; format: physicochemical; conditions: thermodynamic from solid
Protocol: A known amount of solvent (2 mL) is stirred at 37° C. in a closed Erlenmeyer.

[2] = target: sex hormone binding globulin, albumin (Homo sapiens, UniProt P02768); conditions: cited from earlier work
[3] = target: T1, sex hormone binding globulin, albumin (Homo sapiens, UniProt P04278); conditions: cited from earlier work
T1 sequence (P04278 30-402): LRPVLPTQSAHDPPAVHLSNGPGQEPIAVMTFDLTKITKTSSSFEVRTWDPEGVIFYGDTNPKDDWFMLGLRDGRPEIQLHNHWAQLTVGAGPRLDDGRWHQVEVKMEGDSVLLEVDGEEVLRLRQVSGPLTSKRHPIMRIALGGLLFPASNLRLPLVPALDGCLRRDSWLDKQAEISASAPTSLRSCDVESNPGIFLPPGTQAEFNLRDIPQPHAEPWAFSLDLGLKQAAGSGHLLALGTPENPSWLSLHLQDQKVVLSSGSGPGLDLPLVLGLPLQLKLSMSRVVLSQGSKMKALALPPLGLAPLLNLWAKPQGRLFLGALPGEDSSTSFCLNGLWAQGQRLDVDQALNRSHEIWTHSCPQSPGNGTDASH

[4] = test system: sex hormone binding globulin, albumin; conditions: cited from earlier work

sex hormone binding globulin, albumin (Homo sapiens, UniProt P02768), sequence (P02768 25-609): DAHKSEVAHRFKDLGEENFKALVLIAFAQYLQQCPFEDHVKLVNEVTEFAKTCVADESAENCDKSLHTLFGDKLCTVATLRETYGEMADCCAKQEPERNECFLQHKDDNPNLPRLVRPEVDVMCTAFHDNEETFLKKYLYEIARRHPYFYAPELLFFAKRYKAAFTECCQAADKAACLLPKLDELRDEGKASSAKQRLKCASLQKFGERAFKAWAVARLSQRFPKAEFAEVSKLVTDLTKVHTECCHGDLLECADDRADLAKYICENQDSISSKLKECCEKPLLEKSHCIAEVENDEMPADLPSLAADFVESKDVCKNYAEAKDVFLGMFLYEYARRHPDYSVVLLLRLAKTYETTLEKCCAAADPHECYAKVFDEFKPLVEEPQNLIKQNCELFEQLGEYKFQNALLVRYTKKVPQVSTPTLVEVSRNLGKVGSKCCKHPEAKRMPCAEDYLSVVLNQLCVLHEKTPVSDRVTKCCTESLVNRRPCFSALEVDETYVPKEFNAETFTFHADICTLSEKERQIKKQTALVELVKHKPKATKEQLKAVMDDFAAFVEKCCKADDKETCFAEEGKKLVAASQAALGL

Question: Which results are given for `C[C@]12CC[C@H]3[C@@H](CCC4=CC(=O)CC[C@@]43C)[C@@H]1CC[C@@H]2O` [Testosterone]?
Answer: solubility ([1]; aqueous with cosolvent or surfactant or cyclodextrin, water/ethanol mixture, 95% ethanol (v/v) 63/37, 37° C.): 30 mg/mL (≈ 104 mM); solubility ([1]; aqueous with cosolvent or surfactant or cyclodextrin, water/ethanol mixture, 95% ethanol (v/v) 74/26, 37° C.): 52 mg/mL (≈ 180 mM); solubility ([1]; aqueous with cosolvent or surfactant or cyclodextrin, water/ethanol mixture, 95% ethanol (v/v) 84/16, 37° C.): 120 mg/mL (≈ 416 mM); solubility ([1]; aqueous with cosolvent or surfactant or cyclodextrin, water/ethanol mixture, 95% ethanol (v/v) 86/14, 37° C.): 160 mg/mL (≈ 555 mM); solubility ([1]; oleic acid (OA) 100%, oil or lipid, solvent OA (100%), 37° C.): 66 mg/mL (≈ 229 mM); solubility ([1]; organic solvent or mixture, solvent Transcutol (100%), 37° C.): 140 mg/mL (≈ 485 mM); solubility ([1]; organic solvent or mixture, water/ethanol mixture, 95% ethanol (v/v) 100/0, 37° C.): 340 mg/mL (≈ 1180 mM); solubility ([1]; propylene glycol (PG) 100%, organic solvent or mixture, solvent PG (100%), 37° C.): 86 mg/mL (≈ 298 mM); solubility ([1]; propylene glycol dipelargonate (PGDP) 100%, oil or lipid, solvent PGDP (100%), 37° C.): 18 mg/mL (≈ 62.4 mM); solubility ([1]; propylene glycol/oleic acid (PG/OA) 50/50, organic solvent or mixture, solvent PG/OA (50/50), 37° C.): 79 mg/mL (≈ 274 mM); share bound weakly to albumin ([2]; men): 60%; share bound weakly to albumin ([2]; women): 34%; share of the binding to sex hormone binding globulin ([3]; men): approximately 40%; share of the binding to sex hormone binding globulin ([3]; women): approximately 66%; bound to protein in the blood ([4]; men): 98%; bound to protein in the blood ([4]; women): 98%
